From US20130316994A1, “Methods of Reducing Risk of Hepatobiliary Dysfunction During Rapid Weight Loss with METAP-2 Inhibitors” (Zafgen, Inc., priority 2010, published 2013) come the findings set out here.

The test system of this assay is alkaline phosphatase. In words: Administration of MetAP2 inhibitor to obese patients: alkaline phosphatase. The format is in vivo, human. The following applies: 0.1, 0.3 or 0.9 mg/m^2 administered biweekly for 26 days, versus placebo, FIG. 1. How it is done:
Patients treated with either a placebo, 0.1 mg/m^2 (approximately 0.2 mg per dose) of the MetAP2 inhibitor O-(4-dimethylaminoethoxycinnamoyl)fumagillol, 0.3 mg/m^2 (approximately 0.6 mg per dose), or 0.9 mg/m^2 of calculated body surface area (approximately 1.9 mg per dose) administered biweekly for 26 days. […] This reduction is indicative of a decrease in hepatic injury or hepatobiliary dysfunction, which is consistent with reduced biliary sludging and/or gallstone formation.

In the case of `CO[C@@H]1[C@H](OC(=O)C=Cc2ccc(OCCN(C)C)cc2)CC[C@]2(CO2)[C@H]1[C@@]1(C)O[C@@H]1CC=C(C)C` [O-(4-dimethylaminoethoxycinnamoyl)fumagillol], the “reduction in alkaline phosphatase” value was “significant reduction in alkaline phosphatase was observed with increasing MetAP2 inhibitor dosage”.
